Results taken from paper PMC9046089, “CCNE1 amplification is synthetic lethal with PKMYT1 kinase inhibition” (Nature, 2022).
Values joined by “and” are separate entries in the source; they are usually repeats but may differ in a detail not shown here. Identical values can stand only once. Like-named read-outs stand apart in the source and are kept apart here.

Key:
[1] = test system: DOTC24510 cells; assay: Cell proliferation assay (Incucyte growth inhibition); type: cell-based; conditions: three replicates
Excerpt: (§1) Per cent confluence relative to a non-treated control was used to evaluate growth inhibition induced by test compounds. […] (https://synergyfinder.fimm.fi).

[2] = test system: NUGC3 cells; assay: as above; type: cell-based; conditions: three replicates
Excerpt: as §1

[3] = test system: OVCAR3 cells; assay: as above; type: cell-based; conditions: three replicates
Excerpt: as §1

[4] = test system: COV362 cells; assay: as above; type: cell-based; conditions: three replicates
Excerpt: as §1

[5] = test system: RPE1-hTERT TP53-/- Cas9 CCNE1-high cells; assay: as above; type: cell-based
Excerpt: as §1

[6] = test system: RPE1-hTERT TP53-/- Cas9 parental cells; assay: as above; type: cell-based
Excerpt: as §1

[7] = test system: SUM149PT cells; assay: as above; type: cell-based; conditions: three replicates
Excerpt: as §1

[8] = test system: KYSE30 cells; assay: as above; type: cell-based; conditions: three replicates
Excerpt: as §1

[9] = test system: SNU8 cells; assay: as above; type: cell-based; conditions: three replicates
Excerpt: as §1

[10] = test system: TOV112D cells; assay: as above; type: cell-based; conditions: three replicates
Excerpt: as §1

[11] = test system: CDK1; assay: Immune complex histone H1 kinase assay, IP-CDK1, FT282 CCNE1-high cells; type: cell-based; conditions: 24 h; for 32P-labelled histone H1 band intensity, IP-CDK1 kinase assay: 0 nM = 1
Experimental: (§2) Protein concentration was determined by Bradford assay (Thermo Fisher Scientific cat. no. 1856209). For immunoprecipitation of kinases, 200 μg of extract was diluted in 750 μl EBN buffer and 10 μg of CDK1 or CDK2 primary antibody agarose bead conjugates were added to the extract and rotated at 4 °C overnight. Immunoprecipitates were pelleted by centrifugation at 2,500g at 4 °C for 5 min and washed 2× in 750 μl EBN followed by 1 ml EB (80 mM β-glycerol phosphate, 15 mM MgCl2, 20 mM EGTA, 1 mg ml^−1 ovalbumin). After the final wash, the immunoprecipitates were resuspended in 500 μl EB and split into two samples. One sample was used for immunoblot analysis and the other used for kinase assays. Following removal of the final wash, immunoprecipitates were resuspended in 11 μl histone H1 kinase assay buffer (80 mM β-glycerol phosphate, 15 mM MgCl2, 20 mM EGTA, 1 mg ml^−1 ovalbumin, 10 mM DTT, 0.15 μg μl^−1 histone H1 (Sigma-Aldrich, cat. no. H1917), 22 μM ATP, 0.05 μCi μl^−1 γ^32P-ATP (Perkin Elmer NEG502A250UC), pH 7.3) and incubated at room temperature for 30 min. Reactions were quenched by addition of 5 μl 6× sample buffer (60% glycerol, 6% SDS, 0.03% bromophenol blue, 1,500 mM Tris-Cl pH 6.8, 60 mM DTT) and resolved by SDS–PAGE. Gels were exposed to a phosphor imaging screen for 1–2 d and imaged using a Typhoon FLA 9500 (GE Healthcare Life Sciences). 32P-H1 band intensity was quantified using ImageJ v2.0.0.

[12] = test system: CDK2; assay: Immune complex histone H1 kinase assay, IP-CDK2, FT282 CCNE1-high cells; type: cell-based; conditions: 24 h
Experimental: as §2, with “Gels were exposed to a phosphor imaging screen for 1–2 d and imaged using a Typhoon FLA 9500 (GE Healthcare Life Sciences).” left out

[13] = test system: HCC1569 cells; assay: Cell proliferation assay (Incucyte growth inhibition, synergy); type: cell-based; conditions: three replicates
Excerpt: as §1

[14] = target: T1, human recombinant PKMYT1 (Homo sapiens, UniProt Q99640); assay: ADP-Glo kinase assay of PKMYT1 catalytic activity; type: biochemical
T1 construct: full-length human GST–PKMYT1 recombinant protein; GST (N); purchased Thermo Fisher Scientific A33387
T1 sequence (Q99640 1-499): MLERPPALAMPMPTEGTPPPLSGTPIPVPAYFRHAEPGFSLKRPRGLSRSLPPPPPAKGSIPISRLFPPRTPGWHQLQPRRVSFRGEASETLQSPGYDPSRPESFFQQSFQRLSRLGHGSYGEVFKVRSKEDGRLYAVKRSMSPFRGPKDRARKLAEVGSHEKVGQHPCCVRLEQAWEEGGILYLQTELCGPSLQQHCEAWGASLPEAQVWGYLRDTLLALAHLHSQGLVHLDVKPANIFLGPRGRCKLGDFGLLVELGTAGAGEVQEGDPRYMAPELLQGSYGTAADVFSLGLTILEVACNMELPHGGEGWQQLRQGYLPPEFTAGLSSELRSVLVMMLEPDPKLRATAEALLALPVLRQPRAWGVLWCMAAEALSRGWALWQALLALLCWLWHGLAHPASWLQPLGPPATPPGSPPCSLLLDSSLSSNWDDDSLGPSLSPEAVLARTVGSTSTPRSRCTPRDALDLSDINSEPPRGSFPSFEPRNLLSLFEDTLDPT

[15] = read-out: RP-6306 EC50 (mM) RPE1 CCNE1 (C2), growth inhibition, three replicates
[16] = read-out: RP-6306 EC50 (mM) RPE1 WT, growth inhibition, three replicates

SMILES: C=CCn1c(=O)c2cnc(Nc3ccc(N4CCN(C)CC4)cc3)nc2n1-c1cccc(C(C)(C)O)n1 [AZD-1775]
- EC50 ([1]; Homo sapiens, DoTc2-4510, growth inhibition): 38 nM
- EC50 ([1]; growth inhibition): 42 nM and 55 nM
- EC50 ([2]; Homo sapiens, NUGC-3, growth inhibition): 212 nM
- EC50 ([2]; growth inhibition): 239 nM
- EC50 ([3]; Homo sapiens, OVCAR-3, growth inhibition): 94 nM
- EC50 ([3]; growth inhibition): 78 nM and 98 nM
- EC50 ([4]; COV362, growth inhibition): 49 nM
- EC50 ([5]; Homo sapiens, RPE-1, read-out: RP-6306 EC50 (mM) RPE1 CCNE1 (C2), growth inhibition, three replicates): 0.000113 mM
- EC50 [5, 15]: 0.00015 mM and 0.000111 mM
- EC50 ([6]; Homo sapiens, RPE-1, read-out: RP-6306 EC50 (mM) RPE1 WT, growth inhibition, three replicates): 172 nM
- EC50 [6, 16]: 159 nM and 154 nM
- EC50 ([7]; Homo sapiens): 211 nM
- EC50 [7]: 232 nM and 196 nM
- EC50 ([8]; Homo sapiens, KYSE-30, growth inhibition): 437 nM
- EC50 ([8]; growth inhibition): 482 nM and 541 nM
- EC50 [9]: 98 nM and 114 nM and 97 nM
- EC50 ([10]; Homo sapiens): 444 nM
- EC50 [10]: 390 nM and 454 nM
- 32P-labelled histone H1 band intensity, IP-CDK1 kinase assay ([11]; AZD-1775 250 nM): 1.298 and 1.203 and 0.7824
- 32P-labelled histone H1 band intensity, IP-CDK1 kinase assay ([11]; AZD-1775 500 nM): 1.804 and 1.271 and 1.266
- 32P-labelled histone H1 band intensity, IP-CDK1 kinase assay ([11]; AZD-1775 1000 nM): 2.54 and 1.785 and 1.69
- CDK1 kinase activity ([11]; FT282 CCNE1-high cells): activation of both kinases
- CDK2 kinase activity [12]: activation of both kinases
- EC50 ([13]; Homo sapiens, HCC1569, growth inhibition): 54 nM
- EC50 ([13]; growth inhibition): 51 nM and 56 nM

SMILES: Cc1cnc2c(c1)c(C(N)=O)c(N)n2-c1c(C)cccc1C [RP-6421]
- effect on PKMYT1 catalytic activity ([14]; ADP-Glo dose-response): no effect
- PKMYT1 catalytic activity, ADP-Glo signal ([14]; c0 (log10 concentration, head mM) 1): 13700
- PKMYT1 catalytic activity, ADP-Glo signal ([14]; c0 (log10 concentration, head mM) -0.57777): 15400
- PKMYT1 catalytic activity, ADP-Glo signal ([14]; c0 (log10 concentration, head mM) -2.18442): 16550
- PKMYT1 catalytic activity, ADP-Glo signal ([14]; c0 (log10 concentration, head mM) -3.8365): 15000
- PKMYT1 catalytic activity, ADP-Glo signal ([14]; c0 (log10 concentration, head mM) -5.64386): 14750
- PKMYT1 catalytic activity, ADP-Glo signal ([14]; c0 (log10 concentration, head mM) -6.93016): 14350
- PKMYT1 catalytic activity, ADP-Glo signal ([14]; c0 (log10 concentration, head mM) -8.53282): 14150
- PKMYT1 catalytic activity, ADP-Glo signal ([14]; c0 (log10 concentration, head mM) -10.0955): 14900
- PKMYT1 catalytic activity, ADP-Glo signal ([14]; c0 (log10 concentration, head mM) -11.6789): 15800
- PKMYT1 catalytic activity, ADP-Glo signal ([14]; c0 (log10 concentration, head mM) -13.2591): 15500

SMILES: C[C@@]1(O)CCC[C@H]1n1c(=O)c(C(F)F)cc2cnc(NC3CCN(S(C)(=O)=O)CC3)nc21 [PF-06873600]
- EC50 ([1]; growth inhibition): 56 nM and 41 nM and 28 nM
- EC50 ([2]; growth inhibition): 28 nM and 25 nM and 22 nM
- EC50 ([3]; growth inhibition): 46 nM and 37 nM and 35 nM
- EC50 ([4]; growth inhibition): 94 nM and 93 nM
- EC50 [5, 15]: 0.000125 mM
- EC50 [6, 16]: 98 nM and 79 nM and 106 nM
- EC50 [7]: 75 nM and 85 nM and 80 nM
- EC50 ([8]; growth inhibition): 32 nM and 22 nM and 29 nM
- EC50 [9]: 21 nM and 50 nM and 43 nM
- EC50 [10]: 43 nM and 47 nM and 42 nM
- EC50 ([13]; growth inhibition): 37 nM and 41 nM and 40 nM
